The assay relates to oral mucositis induced by acute radiation (40 Gy, left buccal cheek pouch). Put plainly: Oral mucositis induced by acute radiation in hamsters, mucositis scoring (Example 1, SCI-01). Type of assay: in vivo, Syrian Golden Hamsters. Also noted: key to peak mean mucositis score: 0 = normal, 5 = severe ulceration. The note with it: for Days <3: animal days with mucositis score below three; for % Days >=3 / Days >=3: animal days with mucositis score of three or more; for Chi Sq v control: days with score >=3. The source says: The acute radiation model in hamsters has proven to be an accurate, efficient and cost-effective technique to provide a preliminary evaluation of anti-mucositis compounds. The course of mucositis in this model is well defined and results in peak scores approximately 14-16 Days following radiation. The acute model has little systemic toxicity, resulting in few hamster deaths, thus permitting the use of smaller groups (N=7-8) for initial efficacy studies. It has also been used to study specific mechanistic elements in the pathogenesis of mucositis. Molecules that show efficacy in the acute radiation model may be further evaluated in the more complex models of fractionated radiation, chemotherapy, or concomitant therapy.
In this study, an acute radiation dose of 40 Gy on day 0 was administered. Clinically significant mucositis was observed on days 12 through 28.
Thirty-two (32) Syrian Golden Hamsters were given an acute radiation dose of 40 Gy directed to their left buccal cheek pouch on day 0. Test materials were given by sub-cutaneous injection once daily. Dosing began one day before radiation (day −1) and continued until day 16. Mucositis was evaluated clinically starting on day 6, and continuing on alternate days until day 28.
The grade of mucositis was scored, beginning day 6, and for every second day thereafter, through and including day 28. The effect on mucositis of each drug treatment compared to placebo was assessed according to the following parameters:
The difference in the number of days hamsters in each group have ulcerative (score ≧3) mucositis.
On each evaluation day, the number of animals with a blinded mucositis score of 3 in each drug treatment group was compared to the control group. Differences were compared on a cumulative basis and statistical significance was determined by chi-square analysis. Efficacy, in this analysis, is defined by a significant reduction in the number of days that a group of animals had ulcerations (scores 3) when compared to the control group.
For each evaluation day the scores of the control group were compared to those of the treated groups using non-parametric rank sum analysis. Treatment success was considered as a statistically significant lowering of scores in the treated group on 2 or more days from day 6 to day 28.
Thirty-two Syrian Golden Hamsters were divided into four (4) groups of eight (8) animals each. All animals received a single dose of acute radiation of 40 Gy directed to their left buccal cheek pouch on day 0. This was accomplished by anesthetizing the animals and everting the left buccal pouch, while protecting the rest of the animals with a lead shield. Test materials were given by sub-cutaneous injection once daily as detailed in Table 1. Mucositis was evaluated clinically starting on Day 6, and continuing on alternate days until day 28.
Mucositis was induced using a standardized acute radiation protocol. A single dose of radiation (40 Gy/dose) was administered to all animals on day 0. Radiation was generated with a 160 kilovolt potential (15-ma) source at a focal distance of 30 cm, hardened with a 0.35 mm Cu filtration system. Irradiation targeted the left buccal pouch mucosa at a rate of 3.2 Gy/minute. Prior to irradiation, animals were anesthetized with an intraperitoneal injection of Ketamine (160 mg/kg) and Xylazine (8 mg/kg). The left buccal pouch was everted, fixed and isolated using a lead shield to protect all other parts of the hamster's body.
The mucositis score, weight change and survival were measured throughout the study as described above. For the evaluation of mucositis, the animals were anesthetized with an inhalation anesthetic, and the left pouch everted. Mucositis was scored visually by comparison to a validated photographic scale, ranging from 0 for normal, to 5 for severe ulceration (clinical scoring). In descriptive terms, this scale is defined as follows: […]

This note sets out measurements from patent US7906486B2, “Method of treating or preventing tissue deterioration, injury or damage due to disease of mucosa” (SciClone Pharmaceuticals, Inc., priority 2007, dated 2011).

SMILES strings stand for the structures.

In the case of `N[C@H](CCC(=O)N[C@@H](Cc1c[nH]c2ccccc12)C(=O)O)C(=O)O` [SCV-07, γ-D-glutamyl-L-tryptophan], for the setting “1 ug/kg from day -1 to 16”, the “day of peak mean mucositis score” value came out at 16 and the “peak mean mucositis score” value was 3.8. In addition, under “1 ug/kg on days -1 to 16, any day of the study”, the “improvement in daily mucositis scores relative to saline controls (Mann-Whitney rank sum)” value is “did not show any statistically significant improvement on any day”. Where the note is “10 ug/kg from day -1 to 16”, the “day of peak mean mucositis score” value is listed as 16 and the “peak mean mucositis score” value was found to be 3.7. For the setting “100 ug/kg from day -1 to 16”, the “day of peak mean mucositis score” value is listed as 18 and the “peak mean mucositis score” value amounted to 3.4. For the setting “1 ug/kg sc Days -1 to 16”, the “Days <3” value came to 102, the “% Days >=3” value was determined as 46.9%, the “Days >=3” value came to 90 and the “Chi Sq v control” value worked out at 0.0105. For the same compound, under “10 ug/kg sc Days -1 to 16”, the “Days <3” value stood at 120, the “% Days >=3” value is 37.5%, the “Days >=3” value came to 72 and the “Chi Sq v control” value stood at 3.0860. Besides, where the note is “100 ug/kg sc Days -1 to 16”, the “Days <3” value is on record as 124, the “% Days >=3” value turned out to be 35.4%, the “Days >=3” value stood at 68 and the “Chi Sq v control” value is 4.7420.
